Results on two compounds are retold here after article PMC11005471 (Frontiers in Veterinary Science, 2024).

Like-named read-outs stand apart in the source and are kept apart here.

In assay [1] the test system is Bbp. In kind it is biochemical, Brucella suis.
For assay [2], the system named is Bbp. In kind it is biochemical, Brucella suis. This is another data set of the same source.

For `O=P(O)(O)OC[C@H]1OC(O)(COP(=O)(O)O)[C@@H](O)[C@@H]1O` (some centres unmarked) [F1,6bP], the Michaelis-Menten constant (Km) in the assay with Bbp [1] stood at 53.2 ± 6.3 µM. Consider `O=C(COP(=O)(O)O)[C@@H](O)[C@H](O)[C@H](O)[C@H](O)COP(=O)(O)O` [S1,7bP], for which, in the assay with Bbp [2], the Km was 13.9 ± 3.2 µM.

Usually Km stands for the substrate concentration at which the rate is half of its maximum.
